Values joined by “and” are separate entries in the source; they are usually repeats but may differ in a detail not shown here. Identical values can stand only once. Counter-ions that a name gives are not always drawn.
Key:
OAT3 = molecular target: T1, OAT3 (Homo sapiens, UniProt Q8TCC7); test: Substrate of OAT3, uptake in HEK293 cells; conditions: probe substrate 1 μM
T1 sequence (Q8TCC7 1-542): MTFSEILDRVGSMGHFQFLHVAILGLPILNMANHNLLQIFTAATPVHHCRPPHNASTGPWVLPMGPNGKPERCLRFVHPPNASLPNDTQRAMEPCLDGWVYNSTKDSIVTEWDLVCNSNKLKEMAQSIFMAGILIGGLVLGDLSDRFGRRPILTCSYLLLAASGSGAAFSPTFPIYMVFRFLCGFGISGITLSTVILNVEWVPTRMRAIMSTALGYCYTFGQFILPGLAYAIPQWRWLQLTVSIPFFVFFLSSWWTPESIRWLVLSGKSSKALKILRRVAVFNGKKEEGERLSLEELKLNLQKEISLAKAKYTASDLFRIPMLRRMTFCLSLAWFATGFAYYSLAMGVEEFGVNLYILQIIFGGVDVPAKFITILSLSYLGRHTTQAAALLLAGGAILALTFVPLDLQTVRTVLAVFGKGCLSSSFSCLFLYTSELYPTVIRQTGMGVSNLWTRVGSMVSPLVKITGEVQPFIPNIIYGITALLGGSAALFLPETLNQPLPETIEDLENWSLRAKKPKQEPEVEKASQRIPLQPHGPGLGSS
Source text: (§1) Vector-transfected HEK cells were used as a control.

OCT2 [1] = molecular target: T2, OCT2 (Homo sapiens, UniProt O15244); test: Substrate of OCT2, uptake in HEK293 cells; conditions: probe substrate 1 μM
T2 sequence (O15244 1-555): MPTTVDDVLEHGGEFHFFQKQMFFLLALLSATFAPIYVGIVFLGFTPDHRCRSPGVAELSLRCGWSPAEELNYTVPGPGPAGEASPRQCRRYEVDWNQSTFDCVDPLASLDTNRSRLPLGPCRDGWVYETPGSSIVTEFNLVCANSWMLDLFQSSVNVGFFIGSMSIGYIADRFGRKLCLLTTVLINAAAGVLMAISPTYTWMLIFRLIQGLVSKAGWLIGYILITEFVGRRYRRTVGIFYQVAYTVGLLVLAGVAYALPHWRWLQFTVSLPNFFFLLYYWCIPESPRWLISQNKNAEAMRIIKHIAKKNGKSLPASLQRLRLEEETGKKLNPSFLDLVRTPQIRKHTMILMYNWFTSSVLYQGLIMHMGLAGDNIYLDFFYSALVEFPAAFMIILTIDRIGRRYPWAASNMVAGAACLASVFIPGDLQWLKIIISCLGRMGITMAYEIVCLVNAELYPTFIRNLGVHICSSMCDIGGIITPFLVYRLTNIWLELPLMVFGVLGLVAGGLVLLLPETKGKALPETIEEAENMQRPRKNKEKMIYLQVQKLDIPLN
Source text: as §1

OCT2 [2] = molecular target: T2, OCT2; test: OCT2 inhibition, MPP+ uptake in transfected HEK cells; conditions: no inhibitor
CYP2B6 mRNA = CYP2B6 mRNA induction in human hepatocytes (qPCR); conditions: phenobarbital 1,000 μM, flumazenil 10 μM
Method: Plateable and inducible cryopreserved human hepatocytes were thawed and isolated in human hepatocyte thawing medium.
All experiments were performed in triplicate.
After induction treatment, CYP mRNA expression was measured by qPCR. Total RNA was isolated from the treated cells using the RNeasy® mini kit (Qiagen, Valencia, CA, USA) and treated with RNase-free DNase (Qiagen) following the manufacturer's protocols. The concentration of RNA was determined using a Qubit® Fluorometer with a Qubit RNA HS assay kit (Invitrogen). cDNA was synthesized from up to […] of the total RNA harvested from the cells using a QuantiTect® RT kit (Qiagen). Analysis of CYP gene expression by qPCR (Table 3) was performed using the LightCycler® 480 II System (Roche Diagnostics Corporation, Indianapolis, IN, USA).
Relative mRNA was expressed as the fold-increase calculated from the normalized mRNA level (2^−ΔΔCt) relative to vehicle control. The percentage of mRNA fold-increase relative to positive control was calculated using the following equation:
% Induction relative to positive control=100×(mRNATA−mRNAvehicle)/(mRNApositive control−mRNAvehicle)

human hepatocytes = test: Cell viability after CYP induction treatment (MTS); conditions: controls at induction concentrations
Method: Plateable and inducible cryopreserved human hepatocytes were thawed and isolated in human hepatocyte thawing medium. […] After attachment (4 hours), the medium was changed to fresh hepatocyte culture medium for overnight cell recovery. […] A positive control (100 μM chlorpromazine) was treated in parallel.
After the CYP induction treatment, the cells were used for cell viability assay. The viability of cells (expressed as the percentage of MTS absorbance relative to vehicle control) was measured as described herein.

OATP1B1 = OATP1B1 (Homo sapiens, UniProt Q9Y6L6); test: OATP1B1 inhibition, atorvastatin uptake in transfected HEK cells
OATP1B3 = OATP1B3 (Homo sapiens, UniProt Q9NPD5); test: OATP1B3 inhibition, atorvastatin uptake in transfected HEK cells; conditions: for Influx Rate of […] Atorvastatin (5 min): OATP1B3-HEK Cells
[3] = Rat drug-drug interaction study TDF + AMX0035: urine recovery; type: in vivo; conditions: for Amount Recovered: male Sprague Dawley rats, oral, total urine, 24 hour collection
Method: Total urine recovery data for Tenofovir, TDF, and PB was calculated for the 24 hour collection period on Days 1 and 5. […] The reported urine recovery data included amount recovered (ng) and percent recovered (%) for […]. Individual and mean Tenofovir, TDF, and PB urine recovery data were presented with SD, reported to three significant figures, and CV %, reported to one decimal place.

[4] = rat, in vivo
MATE1 = molecular target: T3, MATE1 (Homo sapiens, UniProt Q96FL8); test: MATE1 inhibition, metformin uptake in transfected HEK cells; conditions: no inhibitor
T3 sequence (Q96FL8 1-570): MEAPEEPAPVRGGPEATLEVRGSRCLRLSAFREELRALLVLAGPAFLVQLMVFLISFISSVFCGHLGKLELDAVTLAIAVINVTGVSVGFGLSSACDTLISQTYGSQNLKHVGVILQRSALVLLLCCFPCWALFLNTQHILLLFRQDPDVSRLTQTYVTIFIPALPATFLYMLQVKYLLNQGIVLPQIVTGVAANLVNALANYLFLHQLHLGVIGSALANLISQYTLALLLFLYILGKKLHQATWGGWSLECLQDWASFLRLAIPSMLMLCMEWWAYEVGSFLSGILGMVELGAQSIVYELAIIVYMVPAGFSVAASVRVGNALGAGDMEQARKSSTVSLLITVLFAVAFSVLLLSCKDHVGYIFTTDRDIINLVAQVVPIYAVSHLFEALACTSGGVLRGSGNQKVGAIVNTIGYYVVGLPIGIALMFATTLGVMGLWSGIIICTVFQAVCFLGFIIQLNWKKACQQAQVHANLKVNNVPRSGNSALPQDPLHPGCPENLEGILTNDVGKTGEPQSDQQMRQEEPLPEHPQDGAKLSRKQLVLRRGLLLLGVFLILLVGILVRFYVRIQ

MATE2K = MATE2K (Homo sapiens, UniProt Q86VL8); test: MATE2K inhibition, metformin uptake in transfected HEK cells; conditions: no inhibitor
[5] = Vector Control Cells, replicates

Sequence of OATP1B3 (Q9NPD5 whole entry): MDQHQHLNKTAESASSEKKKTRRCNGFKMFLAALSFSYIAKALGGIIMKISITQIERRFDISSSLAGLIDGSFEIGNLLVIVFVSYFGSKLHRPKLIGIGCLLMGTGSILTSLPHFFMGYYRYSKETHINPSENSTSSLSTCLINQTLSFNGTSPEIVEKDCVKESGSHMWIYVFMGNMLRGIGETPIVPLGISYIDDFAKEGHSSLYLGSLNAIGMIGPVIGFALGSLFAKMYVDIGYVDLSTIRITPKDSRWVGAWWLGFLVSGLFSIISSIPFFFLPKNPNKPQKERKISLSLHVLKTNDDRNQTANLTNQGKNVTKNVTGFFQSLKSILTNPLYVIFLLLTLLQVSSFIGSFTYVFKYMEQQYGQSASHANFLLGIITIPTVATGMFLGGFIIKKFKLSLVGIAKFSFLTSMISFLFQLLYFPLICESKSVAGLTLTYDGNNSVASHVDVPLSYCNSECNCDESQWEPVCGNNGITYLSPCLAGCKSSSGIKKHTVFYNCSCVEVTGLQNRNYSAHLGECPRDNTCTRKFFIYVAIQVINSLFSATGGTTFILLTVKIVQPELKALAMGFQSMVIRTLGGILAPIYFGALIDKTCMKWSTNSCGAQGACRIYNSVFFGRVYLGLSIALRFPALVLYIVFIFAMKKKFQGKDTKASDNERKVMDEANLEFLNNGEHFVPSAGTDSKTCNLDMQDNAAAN
Sequence of OATP1B1 (Q9Y6L6 whole entry): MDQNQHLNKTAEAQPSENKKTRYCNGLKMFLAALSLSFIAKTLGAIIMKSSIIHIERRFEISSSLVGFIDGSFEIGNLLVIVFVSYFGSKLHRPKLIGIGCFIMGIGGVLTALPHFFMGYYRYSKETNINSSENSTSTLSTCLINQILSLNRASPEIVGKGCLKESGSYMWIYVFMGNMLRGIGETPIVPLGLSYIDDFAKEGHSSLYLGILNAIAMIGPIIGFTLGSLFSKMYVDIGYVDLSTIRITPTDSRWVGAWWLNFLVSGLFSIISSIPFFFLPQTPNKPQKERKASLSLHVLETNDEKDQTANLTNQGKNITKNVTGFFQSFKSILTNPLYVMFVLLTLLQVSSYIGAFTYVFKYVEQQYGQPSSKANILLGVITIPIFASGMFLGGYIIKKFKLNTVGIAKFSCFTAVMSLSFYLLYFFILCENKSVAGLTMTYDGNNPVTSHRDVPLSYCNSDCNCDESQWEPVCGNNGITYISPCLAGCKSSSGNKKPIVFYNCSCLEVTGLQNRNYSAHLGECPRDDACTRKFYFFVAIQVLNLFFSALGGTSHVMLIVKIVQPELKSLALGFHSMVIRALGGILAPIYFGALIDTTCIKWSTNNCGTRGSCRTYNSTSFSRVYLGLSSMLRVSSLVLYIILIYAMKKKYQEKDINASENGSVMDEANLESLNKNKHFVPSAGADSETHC
Sequence of MATE2K (Q86VL8 1-566 isoform Q86VL8-3): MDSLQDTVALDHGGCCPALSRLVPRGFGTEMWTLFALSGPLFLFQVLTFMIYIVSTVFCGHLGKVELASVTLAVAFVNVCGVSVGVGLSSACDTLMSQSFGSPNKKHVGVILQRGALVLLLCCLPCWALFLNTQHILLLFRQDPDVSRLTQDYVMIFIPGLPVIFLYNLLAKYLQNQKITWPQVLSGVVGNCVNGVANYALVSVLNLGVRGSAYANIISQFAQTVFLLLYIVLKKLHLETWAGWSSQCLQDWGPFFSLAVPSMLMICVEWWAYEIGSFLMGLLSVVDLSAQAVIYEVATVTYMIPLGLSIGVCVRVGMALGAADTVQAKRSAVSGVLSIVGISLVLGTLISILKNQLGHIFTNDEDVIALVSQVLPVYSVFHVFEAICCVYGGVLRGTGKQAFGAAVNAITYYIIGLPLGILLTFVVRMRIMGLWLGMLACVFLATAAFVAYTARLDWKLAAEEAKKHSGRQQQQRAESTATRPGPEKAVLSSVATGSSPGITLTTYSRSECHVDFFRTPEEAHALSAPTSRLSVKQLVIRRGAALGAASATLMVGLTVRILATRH

## C[C@]12CC[C@@H]3c4ccc(OS(=O)(=O)O)cc4CC[C@H]3[C@@H]1CCC2=O [3H-estrone-3-sulfate]
OAT3
  Fold uptake over the vector control by OAT3: 25.9 fold

## CN(C)C(N)=NC(=N)N [14C-metformin]
OCT2 [1]
  Fold uptake over the vector control by OCT2: 43.7 fold

## C[n+]1ccc(-c2ccccc2)cc1 [MPP+, 1-methyl-4-phenylpyridinium]
OCT2 [2]; OCT2
  Net Influx Rate of 5 μM MPP+: 847 pmol/mg protein/minute
OCT2 [2]
  Influx rate ratio (OCT2 over vector control): 48.9
OCT2 [2]; OCT2-HEK Cells, Average
  Influx Rate of 5 μM MPP+ (2 min): 864 pmol/mg protein/minute
OCT2 [2]; OCT2-HEK Cells, replicates
  Influx Rate of 5 μM MPP+ (2 min): 896 pmol/mg protein/minute and 833 pmol/mg protein/minute
OCT2 [2]; OCT2 over vector control
  Influx Rate Ratio of MPP+: 48.9
OCT2 [2]; Vector Control Cells, Average
  Influx Rate of 5 μM MPP+ (2 min): 17.7 pmol/mg protein/minute
OCT2 [2]; [5]
  Influx Rate of 5 μM MPP+ (2 min): 19.0 pmol/mg protein/minute and 16.3 pmol/mg protein/minute

## CCC1(c2ccccc2)C(=O)NC(=O)NC1=O [Phenobarbital, phenobarbital]
CYP2B6 mRNA; donor 1
  % induction relative to positive control: 100%
  CYP2B6 mRNA fold-increase, mean: 21.8 fold
CYP2B6 mRNA; donor 2
  % induction relative to positive control: 100%
  CYP2B6 mRNA fold-increase, mean: 39.6 fold
CYP2B6 mRNA; donor 3
  % induction relative to positive control: 100%
  CYP2B6 mRNA fold-increase, mean: 7.36 fold
Human hepatocytes; donor 1
  % MTS absorbance relative to vehicle control: 97.7%
  Formazan absorbance, mean (n=6): 0.417
Human hepatocytes; donor 2
  % MTS absorbance relative to vehicle control: 98.8%
  Formazan absorbance, mean (n=6): 0.504
Human hepatocytes; donor 3
  % MTS absorbance relative to vehicle control: 108%
  Formazan absorbance, mean (n=6): 0.320

## CO[C@H]1/C=C/O[C@@]2(C)Oc3c(C)c([O-])c4c(O)c(cc(O)c4c3C2=O)NC(=O)/C(C)=C\C=C\[C@H](C)[C@H](O)[C@@H](C)[C@@H](O)[C@@H](C)[C@H](OC(C)=O)[C@@H]1C.[Na+] [RSV, rifamycin SV]
OATP1B1; 10 μM RSV, OATP1B1-HEK Cells, Average
  Influx Rate of […] Atorvastatin (5 min): 0.702 pmol/mg protein/minute
OATP1B1; 10 μM RSV, OATP1B1-HEK Cells, replicates
  Influx Rate of […] Atorvastatin (5 min): 0.724 pmol/mg protein/minute and 0.681 pmol/mg protein/minute
OATP1B1; 10 μM RSV, Vector Control Cells, Average
  Influx Rate of […] Atorvastatin (5 min): 0.518 pmol/mg protein/minute
OATP1B1; 10 μM RSV, Vector Control Cells, replicates
  Influx Rate of […] Atorvastatin (5 min): 0.496 pmol/mg protein/minute and 0.541 pmol/mg protein/minute
OATP1B1; OATP1B1, 10 μM RSV
  Net Influx Rate of […] Atorvastatin: 0.184 pmol/mg protein/minute
  Percentage Inhibition: 96.7%
OATP1B1; known inhibitor
  % inhibition of atorvastatin uptake: 96.7%
OATP1B3; 10 μM RSV, Average
  Influx Rate of […] Atorvastatin (5 min): 0.573 pmol/mg protein/minute
OATP1B3; 10 μM RSV, replicates
  Influx Rate of […] Atorvastatin (5 min): 0.576 pmol/mg protein/minute and 0.571 pmol/mg protein/minute
OATP1B3; OATP1B3, 10 μM RSV
  Net Influx Rate of […] Atorvastatin: 0.0551 pmol/mg protein/minute
  Percentage Inhibition: 98.1%
OATP1B3; known inhibitor
  % inhibition of atorvastatin uptake: 98.1%

## CC(C)OC(=O)OCOP(=O)(CO[C@H](C)Cn1cnc2c(N)ncnc21)OCOC(=O)OC(C)C [TDF, Tenofovir Disoproxil Fumarate]
[3]; male, Sprague-Dawley, rat, in vivo
  Urine concentrations: Urine concentrations for PB analysis in all animals on Day 1, for TUDCA analysis in all animals on Days 1 and 5, and for TDF analysis in two animals on Day 1 and one animal on Day 5 were BLQ (<20 mg/mL) so no recovery data was calculated.
[4]
  Prodrug in plasma: No prodrug (TDF) was detected in plasma

## C[C@H](Cn1cnc2c(N)ncnc21)OCP(=O)(O)O [Tenofovir]
[3]; Day 1, TDF only 25 mg/kg, individual animals
  Amount Recovered: 77300 ng and 63200 ng and 234000 ng
[3]; Day 1, TDF only 25 mg/kg, mean
  Amount Recovered: 125000 ng
[3]; Day 5, AMX0035 + TDF 840/25 mg/kg, individual animals
  Amount Recovered: 764000 ng and 296000 ng and 99500 ng
[3]; Day 5, AMX0035 + TDF 840/25 mg/kg, mean
  Amount Recovered: 386000 ng
[4]
  Fold increase of mean AUClast in the presence of AMX0035: 2.17 fold
  Fold increase of mean Cmax in the presence of AMX0035: 1.24 fold
  Individual Tmax: 15 min

## CN(C)C(=N)N=C(N)N [metformin]
MATE1; MATE1
  Net Influx Rate of 50 μM Metformin: 572 pmol/mg protein/minute
MATE1
  Influx rate ratio (MATE1 over vector control): 43.4
MATE1; MATE1-HEK Cells, Average
  Influx Rate of 50 μM Metformin (10 min): 586 pmol/mg protein/minute
MATE1; MATE1-HEK Cells, replicates
  Influx Rate of 50 μM Metformin (10 min): 515 pmol/mg protein/minute and 656 pmol/mg protein/minute
MATE1; MATE1 over vector control
  Influx Rate Ratio of metformin: 43.4
MATE1; Vector Control Cells, Average
  Influx Rate of 50 μM Metformin (10 min): 13.5 pmol/mg protein/minute
MATE1; [5]
  Influx Rate of 50 μM Metformin (10 min): 15.6 pmol/mg protein/minute and 11.3 pmol/mg protein/minute
MATE2K; MATE2K
  Net Influx Rate of 50 μM Metformin: 36.1 pmol/mg protein/minute
MATE2K
  Influx rate ratio (MATE2K over vector control): 2.70
MATE2K; MATE2K HEK Cells, Average
  Influx Rate of 50 μM Metformin (10 min): 57.4 pmol/mg protein/minute
MATE2K; MATE2K HEK Cells, replicates
  Influx Rate of 50 μM Metformin (10 min): 54.5 pmol/mg protein/minute and 60.2 pmol/mg protein/minute
MATE2K; MATE2K over vector control
  Influx Rate Ratio of metformin: 2.70
MATE2K; Vector Control Cells, Average
  Influx Rate of 50 μM Metformin (10 min): 21.3 pmol/mg protein/minute
MATE2K; [5]
  Influx Rate of 50 μM Metformin (10 min): 19.6 pmol/mg protein/minute and 22.8 pmol/mg protein/minute

From patent US20240139211A1, “METHODS AND COMPOSITIONS FOR TREATING AMYOTROPHIC LATERAL SCLEROSIS” (Amylyx Pharmaceuticals, Inc., priority 2022, published 2024)
